Reference: ChEMBL document CHEMBL1151606, “Relationship of structure of bridged (2,6-dimethyl-4-pyridinyl)quinolones to mammalian topoisomerase II inhibition” (Bioorg Med Chem Lett, 1993)

target: DNA topoisomerase II (Homo sapiens, UniProt P11388+Q02880); test: Tested for inhibitory activity against Topoisomerase II isolated from HeLa cells by using SDS-K+ precipitation method; type: cell-based; details: not given

**Q.** For `Cc1cc(-c2c(F)cc3c(=O)c(C(=O)O)cn4c3c2SC[C@H]4C)cc(C)n1`, which EC50 is on record?
**A.** Its EC50 is > 260 µM.

**Q.** For `C[C@H]1COc2c(-c3ccncc3)c(F)cc3c(=O)c(C(=O)O)cn1c23`, which EC50 is on record?
**A.** Its EC50 is 57 µM.

**Q.** `Cc1cc(-c2c(F)cc3c(=O)c(C(=O)O)cn4c3c2OCC4(C)C)cc(C)n1` was tested. Which EC50 did it give?
**A.** The EC50 was 510 µM.

**Q.** With `Cc1cc(-c2c(F)cc3c(=O)c(C(=O)O)cn4c3c2[S+]([O-])C[C@@H]4C)cc(C)n1` (stereo partly drawn) as the compound, how does the EC50 read?
**A.** The EC50 was 62 µM.

**Q.** With `Cc1cc(-c2c(F)cc3c(=O)c(C(=O)O)cn4c3c2OCC4)cc(C)n1.Cl` as the compound, how does the EC50 read?
**A.** Its EC50 is > 560 µM.

**Q.** Which EC50 does the source give for `Cc1cc(-c2c(F)cc3c(=O)c(C(=O)O)cn4c3c2NC[C@@H]4C)cc(C)n1` here?
**A.** Its EC50 is 730 µM.

**Q.** Which EC50 does the source give for `CCn1cc(C(=O)O)c(=O)c2cc(F)c(-c3cc(C)nc(C)c3)cc21` here?
**A.** Its EC50 is > 570 µM.

**Q.** How did the EC50 turn out when `Cc1cc(-c2c(F)c(F)c3c(=O)c(C(=O)O)cn4c3c2OC[C@@H]4C)cc(C)n1` was run?
**A.** Its EC50 is 50 µM.

**Q.** For `C[C@H]1COc2c(-c3ccc4cnccc4c3)c(F)cc3c(=O)c(C(=O)O)cn1c23`, which EC50 is on record?
**A.** Its EC50 is 58 µM.

**Q.** For `Cc1cc(-c2ccc3c(=O)c(C(=O)O)cn4c3c2OC[C@@H]4C)cc(C)n1`, which EC50 is on record?
**A.** The EC50 was > 290 µM.

**Q.** For `Cc1cc(-c2c(F)cc3c(=O)c(C(=O)O)cn4c3c2OCC42CC2)cc(C)n1`, which EC50 is on record?
**A.** Its EC50 is > 130 µM.

**Q.** For `Cc1cc(-c2c(F)cc3c(=O)c(C(=O)O)cn4c3c2OCC[C@@H]4C)cc(C)n1`, which EC50 is on record?
**A.** The EC50 was 150 µM.

**Q.** For `Cc1cc(-c2c(F)cc3c(=O)c(C(=O)O)cn4c3c2OC[C@H]4C)cc(C)n1`, which EC50 is on record?
**A.** Its EC50 is > 540 µM.

**Q.** With `Cc1cc(-c2c(F)cc3c(=O)c(C(=O)O)cn4c3c2SC[C@@H]4C)cc(C)n1` as the compound, how does the EC50 read?
**A.** The EC50 was 9.4 µM.

**Q.** `CC[C@H]1COc2c(-c3cc(C)nc(C)c3)c(F)cc3c(=O)c(C(=O)O)cn1c23` was tested. Which EC50 did it give?
**A.** The EC50 was 420 µM.

**Q.** How did the EC50 turn out when `Cc1cc(-c2c(F)cc3c(=O)c(C(=O)O)cn4c3c2OC[C@@H]4C)cc(C)n1` was run?
**A.** The EC50 was 31 µM.

tested on: Mus musculus; test: Tested for the increased life span (ILS) in murine leukemia model (in which P388 administered intraperitoneally), at a concentration of 1014 mg/kg; type: functional; details: P388, ip, route intraperitoneal

**Q.** With `Cc1cc(-c2c(F)cc3c(=O)c(C(=O)O)cn4c3c2SC[C@@H]4C)cc(C)n1` as the compound, how does the ILS at 1014 mg/kg read?
**A.** Its ILS at 1014 mg/kg is 90%.

tested on: Mus musculus; test: Tested for the increased life span (ILS) in murine leukemia model (in which P388 administered intraperitoneally), at a concentration of 180 mg/kg; type: functional; details: P388, ip, route intraperitoneal

**Q.** With `COc1cc([C@@H]2c3cc4c(cc3C(O[C@@H]3O[C@@H]5CO[C@@H](C)O[C@H]5[C@H](O)[C@H]3O)C3COC(=O)[C@@H]32)OCO4)cc(OC)c1O` (single isomer, unassigned) [ETOPOSIDE] as the compound, how does the ILS at 180 mg/kg read?
**A.** The ILS at 180 mg/kg was 220%.
